Measured values: patent publication US5427766A, “Radiolabeled steroids for use in radiochemical-guided surgery” (priority 1993, dated 1995)

Tests used:
[1] = In vivo localization (biodistribution) in athymic female nude mice bearing subcutaneous MCF-7 tumor xenografts; set-up: species or system athymic female NCR-Nu Mice; conditions: mouse, sc, tail vein, subcutaneous MCF-7, mean, n = 5; for tissue uptake: 10-12 hours
Experimental: (§1) In vivo localization of 11β-ethyl-17α-(Z)-[^125 I](iodovinyl)estra-3,17β-diol (5) and a control compound 16α-[^125 I]iodovinyl-3,17β-estradiol (commercially available from DuPont New England Nuclear, MA) was determined in athymic female NCR-Nu Mice (purchased from Simonsen Laboratories, Gilroy, Calif.) bearing subcutaneous MCF-7(ER+) breast tumor xenografts. Prior to injection of the compounds, the mice were each implanted with fragments of MCF-7 breast tumor (approximately 2 cubic millimeters) in the subcutis of the left flank. At approximately the same time, a 1.7 mg estradiol pellet (Innovative Research of America, Toledo, Ohio) was implanted in the scapular region. The tumors were allowed to grow until they reached between 50 and 200 mg by visual inspection (approximately four to five weeks) prior to injection of the test compounds. One day prior to injection of the test compounds, the estradiol pellet was removed.
(§2) The mice were each injected via tail vein with between 3 (1.1×10^5 Bq) and 6 μCi ([…]) ^125 I in approximately 50 μL of phosphate buffered saline. The mice were sacrificed at various time intervals. After exsanguination, the selected organ/tissue were excised, weighed and radioactivity measured in a gamma counter. The counts per minute (cpm) of 125I in each tissue was determined and expressed as cpm per gram of tissue per injected dose multiplied by 100 (percent injected dose/gram).

[2] = In vivo localization (biodistribution) in athymic female nude mice bearing intraperitoneal MCF-7 tumors; set-up: species or system athymic female NCR-Nu Mice; conditions: mouse, in vivo, ip; for tissue uptake: 10-12 hours
Experimental: as §1, §2
The procedure of Example 3 was followed except each mouse was inoculated intraperitoneally with MCF-7 breast carcinoma cell line (7.5×10^6 cell/50 μL) rather than implanted subcutaneously with MCF-7 breast tumor. One day prior to this procedure, a 1.7 mg estradiol pellet was implanted subcutaneously in the scapular region. The tumor cells were allowed to form solid tumor nodules for 4 to 6 weeks prior to injection of the test compounds.

[3] = mcf-7 tumor, Tumor, read-out: Percent Injected Dose/Gram, tumor
[4] = Blood, read-out: Percent Injected Dose/Gram, blood
[5] = Fat, read-out: Percent Injected Dose/Gram, fat
[6] = Kidney, read-out: Percent Injected Dose/Gram, kidney
[7] = Liver, read-out: Percent Injected Dose/Gram, liver
[8] = Muscle, read-out: Percent Injected Dose/Gram, muscle
[9] = Spleen, read-out: Percent Injected Dose/Gram, spleen
[10] = uterus, Uteri, read-out: Percent Injected Dose/Gram, uteri
[11] = Percent Injected Dose/Gram, kidney
[12] = Percent Injected Dose/Gram, liver
[13] = Percent Injected Dose/Gram, muscle
[14] = Percent Injected Dose/Gram, spleen
[15] = Percent Injected Dose/Gram, tumor

Q: For `CC[C@H]1C[C@@]2(C)[C@@H](CC[C@@]2(O)/C=C\[125I])[C@@H]2CCc3cc(O)ccc3[C@@H]12` [Compound 5, 11β-ethyl-17α-(Z)-[^125 I](iodovinyl)estra-3,17β-diol], which tissue uptake [1, 3] is on record?
A: 0.83 %ID/g

Q: What about the tissue uptake at 2 h [1, 3] of the same compound?
A: 1.15 %ID/g

Q: And the tissue uptake at 6 h [1, 3]?
A: 1.1 %ID/g

Q: What about the tissue uptake at 24 h [1, 3] of the same compound?
A: 0.55 %ID/g

Q: And the tissue uptake at 48 h [1, 3]?
A: 0.36 %ID/g

Q: And the tissue uptake [1, 4]?
A: 0.37 %ID/g

Q: What about the tissue uptake at 2 h [1, 4] of the same compound?
A: 1.11 %ID/g

Q: And the tissue uptake at 6 h [1, 4]?
A: 1.06 %ID/g

Q: What about the tissue uptake at 24 h [1, 4] of the same compound?
A: 0.09 %ID/g

Q: And the tissue uptake at 48 h [1, 4]?
A: 0.03 %ID/g

Q: And the tissue uptake [1, 5]?
A: 0.82 %ID/g

Q: And the tissue uptake at 2 h [1, 5]?
A: 2.18 %ID/g

Q: What about the tissue uptake at 6 h [1, 5] of the same compound?
A: 1.72 %ID/g

Q: What about the tissue uptake at 24 h [1, 5] of the same compound?
A: 0.14 %ID/g

Q: And the tissue uptake [1, 6]?
A: 0.45 %ID/g

Q: And the tissue uptake at 2 h [1, 6]?
A: 1.24 %ID/g

Q: What about the tissue uptake at 6 h [1, 6] of the same compound?
A: 1.01 %ID/g

Q: What about the tissue uptake at 24 h [1, 6] of the same compound?
A: 0.1 %ID/g

Q: And the tissue uptake at 48 h [1, 6]?
A: 0.02 %ID/g

Q: And the tissue uptake [1, 7]?
A: 2.39 %ID/g

Q: What about the tissue uptake at 2 h [1, 7] of the same compound?
A: 5.61 %ID/g

Q: And the tissue uptake at 6 h [1, 7]?
A: 5.34 %ID/g

Q: What about the tissue uptake at 24 h [1, 7] of the same compound?
A: 0.87 %ID/g

Q: And the tissue uptake at 48 h [1, 7]?
A: 0.36 %ID/g

Q: And the tissue uptake [1, 8]?
A: 0.09 %ID/g

Q: And the tissue uptake at 2 h [1, 8]?
A: 0.56 %ID/g

Q: What about the tissue uptake at 6 h [1, 8] of the same compound?
A: 0.33 %ID/g

Q: What about the tissue uptake [1, 9] of the same compound?
A: 0.54 %ID/g

Q: What about the tissue uptake at 2 h [1, 9] of the same compound?
A: 1.26 %ID/g

Q: And the tissue uptake at 6 h [1, 9]?
A: 0.97 %ID/g

Q: What about the tissue uptake at 24 h [1, 9] of the same compound?
A: 0.18 %ID/g

Q: And the tissue uptake at 48 h [1, 9]?
A: 0.06 %ID/g

Q: What about the tissue uptake [1, 10] of the same compound?
A: 3.66 %ID/g

Q: And the tissue uptake at 2 h [1, 10]?
A: 4.66 %ID/g

Q: And the tissue uptake at 6 h [1, 10]?
A: 4.4 %ID/g

Q: What about the tissue uptake at 24 h [1, 10] of the same compound?
A: 1.95 %ID/g

Q: What about the tissue uptake at 48 h [1, 10] of the same compound?
A: 1.26 %ID/g

Q: What about the tissue uptake ([2]; Blood, tail vein, intraperitoneal MCF-7, mean, n = 5, read-out: Percent Injected Dose/Gram, blood) of the same compound?
A: 0.61 %ID/g

Q: What about the tissue uptake at 2 h ([2]; Blood, 2 hours, tail vein, intraperitoneal MCF-7, mean, n = 5, read-out: Percent Injected Dose/Gram, blood) of the same compound?
A: 2.07 %ID/g

Q: What about the tissue uptake at 6 h ([2]; Blood, 6 hours, tail vein, intraperitoneal MCF-7, mean, n = 5, read-out: Percent Injected Dose/Gram, blood) of the same compound?
A: 0.88 %ID/g

Q: And the tissue uptake ([2]; Fat, tail vein, intraperitoneal MCF-7, mean, n = 5, read-out: Percent Injected Dose/Gram, fat)?
A: 0.67 %ID/g

Q: And the tissue uptake at 2 h ([2]; Fat, 2 hours, tail vein, intraperitoneal MCF-7, mean, n = 5, read-out: Percent Injected Dose/Gram, fat)?
A: 3.1 %ID/g

Q: What about the tissue uptake at 6 h ([2]; Fat, 6 hours, tail vein, intraperitoneal MCF-7, mean, n = 5, read-out: Percent Injected Dose/Gram, fat) of the same compound?
A: 1.64 %ID/g

Q: And the tissue uptake at 24 h ([2]; Fat, 24 hours, tail vein, intraperitoneal MCF-7, mean, n = 5, read-out: Percent Injected Dose/Gram, fat)?
A: 0.12 %ID/g

Q: And the tissue uptake at 2 h [2, 11]?
A: 2.08 %ID/g

Q: And the tissue uptake at 6 h [2, 11]?
A: 0.78 %ID/g

Q: And the tissue uptake at 24 h [2, 11]?
A: 0.13 %ID/g

Q: And the tissue uptake at 48 h [2, 11]?
A: 0.03 %ID/g

Q: What about the tissue uptake at 2 h [2, 12] of the same compound?
A: 8.26 %ID/g

Q: What about the tissue uptake at 6 h [2, 12] of the same compound?
A: 4.08 %ID/g

Q: And the tissue uptake at 24 h [2, 12]?
A: 1.14 %ID/g

Q: What about the tissue uptake at 48 h [2, 12] of the same compound?
A: 0.44 %ID/g

Q: What about the tissue uptake at 2 h [2, 13] of the same compound?
A: 0.69 %ID/g

Q: What about the tissue uptake at 6 h [2, 13] of the same compound?
A: 0.31 %ID/g

Q: And the tissue uptake at 2 h [2, 14]?
A: 1.72 %ID/g

Q: And the tissue uptake at 6 h [2, 14]?
A: 0.86 %ID/g

Q: What about the tissue uptake at 24 h [2, 14] of the same compound?
A: 0.16 %ID/g

Q: And the tissue uptake at 48 h [2, 14]?
A: 0.06 %ID/g

Q: And the tissue uptake at 2 h [2, 15]?
A: 2.33 %ID/g

Q: What about the tissue uptake at 6 h [2, 15] of the same compound?
A: 1.6 %ID/g

Q: And the tissue uptake at 24 h [2, 15]?
A: 1.07 %ID/g

Q: What about the tissue uptake at 48 h [2, 15] of the same compound?
A: 0.76 %ID/g

Q: And the tissue uptake ([2]; Uteri, tail vein, intraperitoneal MCF-7, mean, n = 5, read-out: Percent Injected Dose/Gram, uteri)?
A: 3.95 %ID/g

Q: And the tissue uptake at 2 h ([2]; Uteri, 2 hours, tail vein, intraperitoneal MCF-7, mean, n = 5, read-out: Percent Injected Dose/Gram, uteri)?
A: 6.47 %ID/g

Q: And the tissue uptake at 6 h ([2]; Uteri, 6 hours, tail vein, intraperitoneal MCF-7, mean, n = 5, read-out: Percent Injected Dose/Gram, uteri)?
A: 4.43 %ID/g

Q: What about the tissue uptake at 24 h ([2]; Uteri, 24 hours, tail vein, intraperitoneal MCF-7, mean, n = 5, read-out: Percent Injected Dose/Gram, uteri) of the same compound?
A: 3.35 %ID/g

Q: And the tissue uptake at 48 h ([2]; Uteri, 48 hours, tail vein, intraperitoneal MCF-7, mean, n = 5, read-out: Percent Injected Dose/Gram, uteri)?
A: 1.62 %ID/g
